# According to patent publication EP0456792B1, “IMPROVED SYSTEM FOR THE TRANSDERMAL APPLICATION OF PHARMACOLOGICALLY ACTIVE COMPOUNDS AT CONTROLLED pH” (Boehringer Ingelheim International GmbH, priority 1989, dated 1991):
# “And” between values parts separate entries of the source, which are not always exact repeats. Equal entries are not always repeated.
# Columns and labels:
# [1] = Flux rate of Clenbuterol through the skin as a function of the skin surface pH (Fig. 9); type: in vitro ADME, Mensch
# Description: Überraschenderweise wurde nun festgestellt, daß bei einer transdermalen Applikation von Clenbuterol die Fluxrate für den Wirkstoff entscheidend verbessert werden kann, wenn der pH-Wert der Hautoberfläche auf einen Wert konstant zwischen 6,0 und 8,5 gehalten wird.
# Die Fluxrate eines Wirkstoffes durch die Haut ist definiert als Menge des Wirkstoffes pro Hautoberfläche und pro Zeiteinheit und wird üblicherweise in [µg/cm^2 . h] angegeben. In dem oben angegebenen pH-Bereich erreicht die Fluxrate für Clenbuterol ihr Maximum, während bei höheren und niederen pH-Werten die Fluxrate stark abnimmt.
# Der pH-Wert der Hautoberfläche ist beim Menschen individuell und temporär verschieden. Ein als Standard angenommener pH-Wert von […] bis 6,0 schwankt im Individualfall zwischen pH 4,5 und 8,0 und hängt von vielen unterschiedlichen Faktoren ab. Schwankungen des pH-Wertes können daneben zum einen durch das Pflaster selbst und zum anderen durch den Wirkstoff hervorgerufen werden. Wie aus der Abb. I ersichtlich ist, nimmt die Fluxrate von Clenbuterol außerhalb des angegebenen pH-Bereichs drastisch ab, so daß eine ausreichende Permeabilität der Haut für Clenbuterol nicht mehr gewährleistet ist.
# In Fig. 9 ist die Permeabilität P von Clenbuterol durch die menschliche Haut aufgetragen (Funktion A); P ist angegeben in [cm/sec]. […]
# [2] = Permeability of pH-modified Clenbuterol CPA through human skin, Franz cell; type: in vitro ADME, Mensch; details: Zelle 1-3 are replicates
# Procedure: Permeabilität von pH-Wort modifiziertem Clenbuterol CPA durch Humanhaut:
# Zusammensetzung der CPA's:
# Als Freigabeapparatur wurde eine Franz-Zelle verwendet. Dies ist eine übliche Methode, um die Abgabe von Arzneistoffen aus pharmazeutischen Formulierungen zu testen. Proben wurden nach 24 h bzw. 48h entnommen und der Gehalt an Clenbuterol bestimmt.
# [3] = CPA pH-Wert 3.5 (5 % Clenbuterol, 5 % Zitronensäure, 90 % Eudragit E 30 D)
# [4] = CPA pH-Wert 10.0 (5 % Clenbuterol, 5 % Na2CO3, 90 % Eudragit E 30 D)
smiles,measurement,setting,value
CC(C)(C)NCC(O)c1cc(Cl)c(N)c(Cl)c1 (stereo not drawn) [Clenbuterol],Fluxrate,"[1]; at pH values higher and lower than the range 6,0 to 8,5",stark abnimmt
same,Fluxrate,"[1]; skin surface pH between 6,0 and 8,5",Maximum
same,Clenbuterol Diffusion nach 24 h,[2]; [3],3.48 µg/cm^2 and 0.65 µg/cm^2 and 2.64 µg/cm^2
same,Clenbuterol Diffusion nach 48 h,[2]; [3],5.52 µg/cm^2 and 1.69 µg/cm^2 and 6.04 µg/cm^2
same,Clenbuterol Diffusion nach 24 h,[2]; [4],7.8 µg/cm^2 and 11.44 µg/cm^2 and 9.84 µg/cm^2
same,Clenbuterol Diffusion nach 48 h,[2]; [4],21.7 µg/cm^2 and 27.3 µg/cm^2 and 24.2 µg/cm^2
